The source made the active and inactive calls. The calls are words filed in the database; no cut-off is given here.
How the values were obtained:
Assay type in all cases: functional
[1] = system: Cortical neurone; assay: Neuroprotective activity against Wistar rat Cortical neurons assessed as reduction of oxygen-glucose-deprivation-induced cell death at 1 to 10 uM treated during reperfusion measured after 24 hrs by XTT assay
[2] = system: Cortical neurone; assay: Neuroprotective activity against Wistar rat Cortical neurons assessed as reduction of oxygen-glucose-deprivation-induced cell death at 100 uM treated during reperfusion measured after 24 hrs by XTT assay
[3] = system: Cortical neurone; assay: Neuroprotective activity against Wistar rat Cortical neurons assessed as reduction of oxygen-glucose-deprivation-induced ROS production at 1 uM treated during reperfusion measured after 24 hrs by H2DCF-DA assay
[4] = system: Cortical neurone; assay: Neuroprotective activity against Wistar rat Cortical neurons assessed as reduction of oxygen-glucose-deprivation-induced lipid peroxidation at 1 uM treated during reperfusion measured after 24 hrs by TBARS method
[5] = system: Cortical neurone; assay: Neuroprotective activity against Wistar rat Cortical neurons assessed as reduction of oxygen-glucose-deprivation-induced lipid peroxidation at 100 uM treated during reperfusion measured after 24 hrs by TBARS method
[6] = system: Cortical neurone; assay: Neuroprotective activity against Wistar rat Cortical neurons assessed as reduction of oxygen-glucose-deprivation-induced LDH release at 1 to 100 uM treated during reperfusion measured after 24 hrs
[7] = system: Cortical neurone; assay: Neuroprotective activity against Wistar rat Cortical neurons assessed as reduction of oxygen-glucose-deprivation-induced caspase-3 activity at 1 to 100 uM treated during reperfusion measured after 24 hrs by spectrofluorometer analysis
[8] = system: Cortical neurone; assay: Neuroprotective activity against Wistar rat Cortical neurons assessed as reduction of oxygen-glucose-deprivation-induced mitochondrial membrane potential at 1 to 100 uM treated during reperfusion measured after 24 hrs by spectrofluorometer analysis

COc1cc(Br)c(/C=[N+](\[O-])C(C)(C)C)cc1O was tested, and the Activity [1] was “inactive”, the Activity [2] was “Active” and the Activity [3] was “Active”. For the same compound, the Activity [4] was “Active”, the Activity [5] was “inactive” and the Activity [6] was “Active”. The Activity [7] was “Active” and the Activity [8] was “inactive”.
